Tested on: Endothelial cell
Assay: Inhibition of human umbilical vein endothelial cell adhesion to fibrinogen, vitronectin and fibronectin coated surfaces;NI means no inhibition at 300 uM
Format: functional, cell-based

Compound | inhibition
O=C(O)CCNC(=O)c1cc2n(c1)CCN(CCC1CCNCC1)C2=O | No inhibition

Biological target: Integrin alpha-IIb/beta-3 (Homo sapiens, UniProt P05106+P08514)
Assay: Inhibition of fibrinogen binding to glycoprotein alpha IIb beta-3 integrin of activated platelets

Chain of Integrin alpha-IIb/beta-3 (P05106 27-788 limits assumed): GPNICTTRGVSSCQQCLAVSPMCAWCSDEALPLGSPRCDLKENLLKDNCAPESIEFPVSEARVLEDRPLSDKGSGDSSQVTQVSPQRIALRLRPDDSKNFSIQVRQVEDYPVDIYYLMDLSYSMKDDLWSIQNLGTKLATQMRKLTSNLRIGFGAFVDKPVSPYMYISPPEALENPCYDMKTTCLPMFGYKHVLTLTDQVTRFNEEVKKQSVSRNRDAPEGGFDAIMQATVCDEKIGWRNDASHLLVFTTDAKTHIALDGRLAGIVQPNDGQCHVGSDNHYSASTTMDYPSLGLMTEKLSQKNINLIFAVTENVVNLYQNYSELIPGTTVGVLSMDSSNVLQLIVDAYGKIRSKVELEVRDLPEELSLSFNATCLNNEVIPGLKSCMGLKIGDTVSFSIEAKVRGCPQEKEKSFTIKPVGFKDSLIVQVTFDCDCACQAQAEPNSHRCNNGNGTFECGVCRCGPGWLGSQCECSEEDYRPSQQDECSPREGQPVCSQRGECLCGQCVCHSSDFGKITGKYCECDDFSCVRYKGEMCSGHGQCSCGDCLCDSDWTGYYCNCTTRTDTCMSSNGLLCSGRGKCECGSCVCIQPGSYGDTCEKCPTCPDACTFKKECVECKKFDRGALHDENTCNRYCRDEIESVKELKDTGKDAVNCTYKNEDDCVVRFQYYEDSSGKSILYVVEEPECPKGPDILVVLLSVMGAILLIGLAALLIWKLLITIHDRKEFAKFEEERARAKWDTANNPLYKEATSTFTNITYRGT
Chain of Integrin alpha-IIb/beta-3 (P08514 32-887 limits assumed): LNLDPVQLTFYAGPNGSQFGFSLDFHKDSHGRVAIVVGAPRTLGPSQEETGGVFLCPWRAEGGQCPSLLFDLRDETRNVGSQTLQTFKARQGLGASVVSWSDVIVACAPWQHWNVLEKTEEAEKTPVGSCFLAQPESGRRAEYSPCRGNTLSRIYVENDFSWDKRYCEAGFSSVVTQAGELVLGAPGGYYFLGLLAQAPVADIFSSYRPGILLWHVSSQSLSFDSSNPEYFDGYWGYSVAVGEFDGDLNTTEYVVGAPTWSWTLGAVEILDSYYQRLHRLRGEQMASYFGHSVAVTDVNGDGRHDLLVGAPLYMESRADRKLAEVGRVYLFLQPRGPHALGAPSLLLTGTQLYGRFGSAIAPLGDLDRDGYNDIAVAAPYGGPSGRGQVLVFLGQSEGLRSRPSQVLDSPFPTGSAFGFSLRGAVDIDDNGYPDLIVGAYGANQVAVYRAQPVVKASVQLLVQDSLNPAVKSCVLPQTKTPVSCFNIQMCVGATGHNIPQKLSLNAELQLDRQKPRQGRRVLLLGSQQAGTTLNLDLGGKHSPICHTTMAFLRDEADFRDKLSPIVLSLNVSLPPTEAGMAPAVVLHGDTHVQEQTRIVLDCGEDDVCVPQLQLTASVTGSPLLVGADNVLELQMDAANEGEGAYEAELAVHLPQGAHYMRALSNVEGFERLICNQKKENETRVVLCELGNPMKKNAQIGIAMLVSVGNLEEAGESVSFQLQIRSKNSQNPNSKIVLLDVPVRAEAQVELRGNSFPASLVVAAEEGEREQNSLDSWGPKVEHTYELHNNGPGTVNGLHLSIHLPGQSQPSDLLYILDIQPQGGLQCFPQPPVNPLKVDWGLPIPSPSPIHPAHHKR
Chain of Integrin alpha-IIb/beta-3 (P08514 891-1039 limits assumed): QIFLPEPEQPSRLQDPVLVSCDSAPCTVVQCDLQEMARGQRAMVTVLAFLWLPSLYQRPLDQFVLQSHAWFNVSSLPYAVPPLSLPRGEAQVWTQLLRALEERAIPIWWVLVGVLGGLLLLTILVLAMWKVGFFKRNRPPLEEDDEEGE

Compound | IC50 [nM]
O=C(O)CCNC(=O)c1cc2n(n1)CCN(CCCC1CCNCC1)C2=O | 1300
O=C(O)CCNC(=O)c1cc2n(c1)CCN(CCC1CCNCC1)C2=O | 79
O=C(O)CCNC(=O)c1cc2n(c1)CCCN(CCC1CCNCC1)C2=O | 170
O=C(O)CCNC(=O)c1cc2n(n1)CCN(CC1CCNCC1)C2=O | 45000
Cc1c(C(=O)NCCC(=O)O)cn2c1C(=O)N(CCC1CCNCC1)CC2 | 170
O=C(O)CCNC(=O)c1cn2c(c1-c1ccccc1)C(=O)N(CCC1CCNCC1)CCC2 | > 300000
O=C(O)CNC(=O)c1cc2n(n1)CCN(CCCC1CCNCC1)C2=O | 14000
O=C(O)CCCNC(=O)c1cc2n(n1)CCN(CC1CCNCC1)C2=O | 15000
O=C(O)CCN1CCn2nc(C(=O)NCCC3CCNCC3)cc2C1=O | 31000
Cc1c(C(=O)NCCC(=O)O)cn2c1C(=O)N(CCC1CCNCC1)CCC2 | 510
O=C(O)CCNC(=O)c1cc2n(n1)CCN(CCC1CCNCC1)C2=O | 250

From ChEMBL document CHEMBL1128650, “Non-peptide glycoprotein IIb/IIIa inhibitors. 6. Design and synthesis of rigid, centrally constrained non-peptide fibrinogen receptor antagonists” (Bioorg Med Chem Lett, 1995)
